Measured values as given in patent US20110269763A1, “CRTH2 receptor ligands for medicinal uses” (7TM Pharma A/S, priority 2004, published 2011).

How the values were obtained:
human CRTH2 [1] = target: T1, human CRTH2 (Homo sapiens, UniProt Q9Y5Y4, V204A); assay: Functional antagonist BRET assay on HEK293 cells stably expressing human CRTH2-Rluc and GFP2-β-arr2; format: cell-based; parameters: expressed in transfected cells; conditions: read-out: Antag. IC50
T1 sequence (Q9Y5Y4 1-395 V204A): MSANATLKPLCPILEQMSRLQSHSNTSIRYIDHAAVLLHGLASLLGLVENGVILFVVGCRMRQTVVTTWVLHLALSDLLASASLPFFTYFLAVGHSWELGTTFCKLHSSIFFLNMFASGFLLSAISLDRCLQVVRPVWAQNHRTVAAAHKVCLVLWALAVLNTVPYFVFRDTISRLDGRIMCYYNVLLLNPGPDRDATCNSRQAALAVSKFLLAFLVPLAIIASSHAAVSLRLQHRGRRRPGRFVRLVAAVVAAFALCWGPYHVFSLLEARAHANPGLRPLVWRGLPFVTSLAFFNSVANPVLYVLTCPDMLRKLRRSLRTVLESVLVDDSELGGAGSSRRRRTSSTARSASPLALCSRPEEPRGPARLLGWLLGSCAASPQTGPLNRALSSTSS
Excerpt: (§1) Generation/origin of the cDNA Constructs. The coding sequence of the human CRTH2 receptor (genbank accession no NM_004778) was amplified by PCR from a human hippocampus cDNA library and inserted into the pcDNA3.1(+) expression vector (invitrogen) via 5′ HindIII and 3′ EcoRI. To generate a CRTH2-Renilla luciferase (CRTH2-Rluc) fusion protein, the CRTH2 coding sequence without a STOP codon and Rluc were amplified, fused in frame by PCR and subcloned into the pcDNA3.1(+)Zeo expression vector (invitrogen). Human β-arrestin2 (β-arr2) N-terminally tagged with GFP^2 (βarr2-GFP^2) and Renilla luciferase were purchased from BioSignal Packard Inc, (Montreal, Canada). The sequence identity of the construct was verified by restriction endonuclease digests and sequencing in both directions on an ABI Prism (Applied Biosystems, Foster City, Calif.).
(§2) Cell Culture and Transfection. COS-7 cells were grown in Dulbecco's modified Eagle's medium (DMEM) 1885 supplemented with 10% fetal bovine serum, 100 units/ml penicillin, […] streptomycin, and kept at 37° C. in a 10% CO2 atmosphere. HEK293 cells were maintained in Minimum Essential medium (MEM) supplemented with 10% (v/v) heat inactivated fetal calf serum (HIFCS), 2 mM Glutamax™-I, 1% non essential amino acids (NEAA), 1% sodium pyruvate and 10 μg/ml gentamicin. For binding experiments, COS7 cells were transiently transfected with the CRTH2 receptor using a calcium phosphate-DNA coprecipitation method with the addition of chloroquine (as described by Holst et al., 2001↓). To perform the functional Bioluminescence Resonance Energy Transfer (BRET) assays, a HEK293 cell clone stably expressing βarr2-GFP^2 and CRTH2-Rluc was generated (CRTH2-HEK293 cells).
BRET assay. Functional BRET assays were performed on HEK293 cells stably expressing human CRTH2-Rluc and GFP^2-β-arr2. Prior to their use in the BRET assay cells were detached and re-suspended in D-PBS with 1000 mg/L L-Glucose at a density of 2×10^6 cells/mL. DeepBlueC™ was diluted to 50 μM in D-PBS with 1000 mg/L L-Glucose (light sensitive). 100 μL of cell suspension was transferred to wells in a 96-well microplate (white OptiPlate) and placed in the Mithras LB 940 instrument (BERTHOLD TECHNOLOGIES, Bad Wildbad, Germany). 12 μL/well agonist was then injected by injector 1 and 10 μL/well DeepBlueC™ was injected simultaneously by injector 2. Five seconds after the injections the light output from the well was measured sequentially at 400 nm and 515 nm, and the BRET signal (mBRET ratio) was calculated by the ratio of the fluorescence emitted by GFP^2-β-arr2 (515 nm) over the light emitted by the receptor-Rluc (400 nm). Antagonists were added before placing the microplates into the Mithras LB 940 and allowed to incubate for 15 minutes prior to the addition of agonist and DeepBlueC™. Compounds were dissolved in DMSO and the final DMSO concentration was kept constant at 1% in the assay.
(§3) Curve analysis was performed with the GraphPadPrism software 3.0 (Graphpad Prism Inc., San Diego, USA) and IC50 values were calculated as a measure of the antagonistic potencies.

human CRTH2 [2] = target: T1, human CRTH2; assay: Receptor binding assay: [3H]PGD2 competition binding on whole COS-7 cells transiently transfected with CRTH2 (also stable HEK293 cells); parameters: expressed in transfected cells; host or cells: COS-7 (transient, calcium phosphate)
Excerpt: as §1, §2
Binding assay. 24 h after transfection COS-7 cells were seeded into 96 well plates at a density of 30.000 cells/well. Competition binding experiments on whole cells were then performed about 18-24 h later using 0.1 nM [^3H]PGD2 (NEN, 172 Ci/mmol) in a binding buffer consisting of HBSS (GIBCO) and 10 mM HEPES. Competing ligands were diluted in DMSO which was kept constant at 1% (v/v) of the final incubation volume. Total and nonspecific binding were determined in the absence and presence of 10 μM PGD2. Binding reactions were routinely conducted for 3 h at 4° C. and terminated by 2 washes (100 μl each) with ice cold binding buffer. Radioactivity was determined by liquid scintillation counting in a TOPCOUNTER (Packard) following over night incubation in Microscint 20. Stable HEK293 cells were seeded at a density of 30.000 cells/well 18-24 h prior to the binding assay which was performed essentially as described for COS7 cells above. Determinations were made in duplicates.
as §3

[3] = BRET, antagonist incubated 15 minutes prior to agonist
[4] = competition with 0.1 nM [3H]PGD2, whole cells, 3 h at 4° C.
[5] = functional antagonist assay, Table 3
[6] = receptor binding assay, Table 3

IC50 (human CRTH2 [1]; [3]) [nM] | IC50 (human CRTH2 [2]; [4]) [nM] | IC50 (human CRTH2 [1]; [5]) [nM] | IC50 (human CRTH2 [2]; [6]) [nM] | SMILES
< 500 | < 500 |  |  | Cc1cccc(Cl)c1-n1cc(C(=O)c2cc(Br)ccc2OCC(=O)O)cn1 [D76, {4-Bromo-2-[1-(2-chloro-6-methylphenyl)-1H-pyrazole-4-carbonyl]phenoxy}acetic acid]
< 500 | < 500 |  |  | O=C(O)COc1ccc(-c2ccccc2)cc1C(=O)c1cnn(-c2ccccc2)c1 [D5, 3-(1-Phenyl-1H-pyrazole-4-carbonyl)biphenyl-4-yloxyacetic acid]
 |  | < 500 | < 500 | CC(=O)Nc1ccc(Cc2noc(-c3cc(Br)ccc3OCC(=O)O)n2)cc1 [D131, {2-[3-(4-Acetylaminobenzyl)-[1,2,4]oxadiazol-5-yl]-4-bromophenoxy}acetic acid]
< 500 | < 500 |  |  | O=C(O)COc1ccc(Br)cc1C(=O)c1cnn(-c2ccccc2)c1 [D1, 4-Bromo-2-(1-phenyl-1H-pyrazole-4-carbonyl)phenoxyacetic acid]
 |  | < 500 | < 500 | O=C(O)COc1ccc(Br)cc1-c1nc(Cc2c(Cl)cccc2Cl)no1 [D121, {4-Bromo-2-[3-(2,6-dichloro-benzyl)-[1,2,4]oxadiazol-5-yl]-phenoxy}-acetic acid]
< 500 | < 500 |  |  | O=C(O)COc1ccc(Br)cc1C(=O)c1cnn(Cc2ccccc2)c1 [D56, [2-(1-Benzyl-1H-pyrazole-4-carbonyl)-4-bromophenoxy]acetic acid]
< 500 | < 500 |  |  | Cc1ccc(-n2cc(C(=O)c3cc(Br)ccc3OCC(=O)O)cn2)c(C)c1 [D54, {4-Bromo-2-[1-(2,4-dimethylphenyl)-1H-pyrazole-4-carbonyl]phenoxy}acetic acid]
 |  | < 500 | < 500 | O=C(O)COc1ccc(Br)cc1-c1nc(Cc2ccc(Cl)cc2)no1 [D114, {4-Bromo-2-[3-(4-chloro-benzyl)-[1,2,4]oxadiazol-5-yl]-phenoxy}-acetic acid]
500 to 5000 | < 500 |  |  | O=C(O)COc1ccc(Br)cc1C=NNc1nncc(-c2ccccc2)n1 [D152]
 |  | < 500 | < 500 | O=C(O)COc1ccc(Br)cc1-c1nc(-c2ccc(Cl)cc2Cl)no1 [D129, {4-Bromo-2-[3-(2,4-dichlorophenyl)-[1,2,4]oxadiazol-5-yl]phenoxy}acetic acid]
 |  | < 500 | < 500 | O=C(O)COc1ccc(Br)cc1-c1nc(Cc2ccc(Cl)c(Cl)c2)no1 [D123, {4-Bromo-2-[3-(3,4-dichlorobenzyl)-[1,2,4]oxadiazol-5-yl]-phenoxy}acetic acid]
< 500 | < 500 |  |  | O=C(O)COc1ccc(Br)cc1C(=O)c1cnn(-c2ccccc2Oc2ccccc2)c1 [D43, {4-Bromo-2-[1-(2-phenoxyphenyl)-1H-pyrazole-4-carbonyl]phenoxy}acetic acid]
< 500 | < 500 |  |  | O=C(O)COc1ccc(Br)cc1C(=O)c1cnn(-c2ccc(Cl)c(Cl)c2)c1 [D61, {4-Bromo-2-[1-(3,4-dichlorophenyl)-1H-pyrazole-4-carbonyl]phenoxy}acetic acid]
< 500 | < 500 |  |  | Cc1ccc(-n2cc(C(=O)c3cc(Br)ccc3OC(C)C(=O)O)cn2)c(Br)c1 (centres unmarked) [D50, 2-{4-Bromo-2-[1-(2-bromo-4-methylphenyl)-1H-pyrazole-4-carbonyl]phenoxy}propionic acid]
< 500 | < 500 |  |  | Cc1cc(Cl)ccc1-n1cc(C(=O)c2cc(Br)ccc2OCC(=O)O)cn1 [D58, {4-Bromo-2-[1-(4-chloro-2-methylphenyl)-1H-pyrazole-4-carbonyl]phenoxy}acetic acid]
> 5000 | < 500 |  |  | O=C(O)COc1ccc(Br)cc1-c1coc(-c2ccccc2)n1 [D83, [4-Bromo-2-(2-phenyloxazol-4-yl)phenoxy]acetic acid]
500 to 5000 | < 500 |  |  | COc1ccc(OCC(=O)O)c(C(=O)c2cnn(-c3ccccc3)c2)c1 [D36, 4-Methoxy-2-[1-phenyl-1H-pyrazole-4-carbonyl]phenoxyacetic acid]
500 to 5000 | < 500 |  |  | O=C(O)COc1ccccc1C=NNC(=O)c1ccnc(-c2ccccc2)c1 [D155]
< 500 | < 500 |  |  | O=C(O)COc1ccc(Br)cc1-c1csc(-c2ccccc2)n1 [D93, [4-Bromo-2-(2-phenylthiazol-4-yl)phenoxy]acetic acid]
500 to 5000 | < 500 |  |  | O=C(O)COc1ccccc1C(=O)c1cnn(-c2ccccc2)c1 [D2, 2-(1-Phenyl-1H-pyrazole-4-carbonyl)phenoxyacetic acid]
< 500 | < 500 |  |  | O=C(O)COc1ccc(Br)cc1C(=O)c1cc(-c2ccccc2)no1 [D97, [4-Bromo-2-(3-phenylisoxazole-5-carbonyl)phenoxy]acetic acid]
< 500 | < 500 |  |  | O=C(O)COc1ccc(Br)cc1CC1SC(=O)N(Cc2cccc(Cl)c2)C1=O (centres unmarked) [D144, 4-Bromo-2-[3-(3-chlorobenzyl)-2,4-dioxothiazolidin-5-ylmethyl]phenoxyacetic acid]
> 5000 | 500 to 5000 |  |  | CCOc1ccc(OCC(=O)O)c(C(=O)c2cnn(-c3ccccc3)c2)c1 [D74, [4-Ethoxy-2-(1-phenyl-1H-pyrazole-4-carbonyl)phenoxy]acetic acid]
< 500 | < 500 |  |  | Cc1cccc(C)c1-n1cc(C(=O)c2cc(Br)ccc2OCC(=O)O)cn1 [D71, {4-Bromo-2-[1-(2,6-dimethylphenyl)-1H-pyrazole-4-carbonyl]phenoxy}acetic acid]
< 500 | < 500 |  |  | O=C(O)COc1ccc(Br)cc1C(=O)c1cnn(-c2ccccn2)c1 [D6, 4-Bromo-2-(1-pyridin-2-yl-1H-pyrazole-4-carbonyl)phenoxyacetic acid]
< 500 | < 500 |  |  | O=C(O)COc1ccc(Br)cc1C(=O)c1cnn(-c2ccc(Br)cc2Br)c1 [D33, 4-Bromo-2-[1-(2,4-dibromophenyl)-1H-pyrazole-4-carbonyl]phenoxyacetic acid]
< 500 | < 500 |  |  | O=C(O)COc1ccc(Br)cc1C(=O)c1cnn(-c2cc(Cl)ccc2Cl)c1 [D59, {4-Bromo-2-[1-(2,5-dichlorophenyl)-1H-pyrazole-4-carbonyl]phenoxy}acetic acid]
< 500 | < 500 |  |  | O=C(O)COc1ccc(Br)cc1C(=O)c1cnn(-c2cccc(Cl)c2)c1 [D15, 4-Bromo-2-[1-(3-chloro-phenyl)-1H-pyrazole-4-carbonyl]phenoxyacetic acid]
